IC50 data for 9 molecules are collected here from article PMC5354814, “In silico and in vitro drug screening identifies new therapeutic approaches for Ewing sarcoma” (Oncotarget, 2016).

The structures appear in SMILES notation. Bounds are passed on as bounds.

Common to all, as to assay: Hits validation, dose-response cell proliferation (CellTiter-Glo)
Type in all cases: cell-based

Experiment [1] deals with Hs 919.T. The note with it: control cell line, 12-point dose-response, mean ± SD. The protocol:
These drugs were chosen based on their known mechanisms and safety profiles. We also tested the synergy between these drug hits (Supplementary Figures S6–S11). […] We evaluated the anti-proliferation effect in combination treatments using the EWS and control cell lines.
(§1) For hits validation and combination study, cells were harvested and aliquoted into 384-well plates at concentrations of 750–1,500 cells per well in a total of 20 μl/well using a Matrix Wellmate (Thermo Scientific). Five μl of culture media containing either vehicles or drug were added to each well the next day (drug concentrations range from 1 nmol/L to 50 μmol/L). For combination study, selected drugs were archived in robotically accessible plates, to which media was added in preparation for addition to master plates by a Nimbus 96 liquid-dispensing workstation (Hamilton). Liquid transfers to dilution and assay plates were handled using the same workstation. Each 384-well master plate contained four 9 by 9 dose-matrix blocks, with eight serial two-fold dilutions (concentrations range from 7.8 nmol/L to 1 μmol/L). Additional wells were reserved for untreated, and vehicle-treated control wells. Cell proliferation was evaluated using Cell-Titer Glo® reagents (Promega). IC50 values were determined for each drug using SigmaPlot (Systat Software). The combination index values were calculated using SigmaPlot (Systat Software) and CompuSyn.

The test system of experiment [2] is Hs 822.T. To be noted: control cell line, 12-point dose-response, mean ± SD. The protocol: as §1
In experiment [3] the test system is COG-E-352. The note with it: 12-point dose-response 50 μmol/L to 1 nmol/L, mean ± SD. The procedure:
as §1

Experiment [4] has as its system CHLA-258. The note with it: 12-point dose-response 50 μmol/L to 1 nmol/L, mean ± SD. The protocol:
as §1

Experiment [5] concerns Hs 863.T. To be noted: control cell line, 12-point dose-response, mean ± SD. The procedure:
as §1

The test system of experiment [6] is RD-ES. The note with it: 12-point dose-response 50 μmol/L to 1 nmol/L, mean ± SD. The protocol: as §1
The subject of experiment [7] is SK-ES-1. The note with it: 12-point dose-response 50 μmol/L to 1 nmol/L, mean ± SD. The procedure: as §1
Experiment [8] relates to A673. To be noted: 12-point dose-response 50 μmol/L to 1 nmol/L, mean ± SD. The procedure: as §1
Experiment [9] concerns TC-71. The note with it: 12-point dose-response 50 μmol/L to 1 nmol/L, mean ± SD. The protocol:
as §1

As a reminder, the IC50 is the concentration needed to halve the response being measured.

On to `OCCN1CCN(CCCN2c3ccccc3Sc3ccc(C(F)(F)F)cc32)CC1` [Fluphenzaine], for which the concentration for half-maximal inhibition (IC50) in experiment [1] is 15.5 ± 3.68 µM; in experiment [2], 22.7 ± 7.23 µM; in experiment [3], 16.1 ± 7.51 µM; in experiment [4] it was 19 ± 6.79 µM; in experiment [5], 20.5 ± 2.88 µM; in experiment [6] it was 14.3 ± 3.21 µM. In addition, the IC50 in experiment [7] came out at 16.3 ± 3.66 µM; in experiment [8], 10.5 ± 2.89 µM; in experiment [9], 17 ± 6.68 µM.

With `COC1=C2C[C@@H](C)C[C@H](OC)[C@H](O)[C@@H](C)/C=C(\C)[C@H](OC(N)=O)[C@@H](OC)/C=C\C=C(/C)C(=O)NC(=CC1=O)C2=O` [Geldanamycin], the IC50 is greater than 20 µM in experiment [1]; greater than 20 µM in experiment [2]; less than 0.003 µM in [3]; less than 0.003 µM in experiment [4]; greater than 20 µM in experiment [5]; 0.05 ± 0.003 µM in [6] (RD-ES). Further, the 50% inhibitory concentration (IC50) is 0.03 ± 0.002 µM in experiment [7] (Homo sapiens, SK-ES1); 1.93 ± 0.05 µM in experiment [8] (Homo sapiens, A673); less than 0.003 µM in experiment [9] (TC-71).

In the case of `c1coc(CNc2ncnc3[nH]cnc23)c1` [Kinetin], the IC50 in [1], in [2], in experiment [3], in [4], in [5] and in [6] (RD-ES) was greater than 50 µM each time. Besides, the IC50 was greater than 50 µM in experiment [7] (Homo sapiens, SK-ES1); greater than 50 µM in [8] (Homo sapiens, A673); greater than 50 µM in experiment [9] (TC-71).

`CN1C[C@H](CO)C=C2c3cccc4[nH]cc(c34)C[C@H]21` [Lysergol]: the 50% inhibitory concentration (IC50) in experiment [1], in experiment [2], in experiment [3], in [4], in experiment [5] and in [6] was greater than 50 µM in each case. Besides, the IC50 in experiment [7], in [8] and in experiment [9] was greater than 50 µM in each case.

For the molecule `Nc1ccccc1NC(=O)c1ccc(CNC(=O)OCc2cccnc2)cc1` [MS275], the half-inhibitory concentration (IC50) is greater than 50 µM in experiment [1]; greater than 25 µM in experiment [2]; 1.47 ± 0.54 µM in [3]; 0.15 ± 0.03 µM in [4]; greater than 25 µM in [5]; 2 ± 0.85 µM in experiment [6] (RD-ES). The IC50 in experiment [7] (Homo sapiens, SK-ES1) came to 2.4 ± 1.01 µM; in experiment [8] (Homo sapiens, A673) it was 2.5 ± 1.02 µM; in experiment [9] (TC-71), 1.53 ± 0.49 µM.

For the molecule `CN(C)CCOC(=O)COc1ccc(Cl)cc1` [Meclofenoxate], the half-maximal inhibitory concentration (IC50) in experiment [1], in [2], in experiment [3], in [4], in experiment [5] and in [6] (RD-ES) was greater than 50 µM throughout. The half-inhibitory concentration (IC50) in experiment [7] (Homo sapiens, SK-ES1) is greater than 50 µM; in experiment [8] (Homo sapiens, A673) it was greater than 50 µM; in [9] (TC-71), greater than 50 µM.

`CC1=CC(=O)c2ccccc2C1=O` [Menadione]: the IC50 in experiment [1] amounted to 15.8 ± 2.35 µM; in experiment [2], 12.2 ± 2.12 µM; in experiment [3], 5.62 ± 1.31 µM; in experiment [4], 3.64 ± 2.08 µM; in [5] it was 14.2 ± 3.2 µM; in experiment [6] (RD-ES) it was 10.6 ± 3.2 µM. The concentration for half-maximal inhibition (IC50) in experiment [7] (Homo sapiens, SK-ES1) was found to be 5.56 ± 1.24 µM; in experiment [8] (Homo sapiens, A673), 6.8 ± 1.35 µM; in experiment [9] (TC-71), 2.94 ± 3.48 µM.

Take `O=C(Nc1ccc([N+](=O)[O-])cc1Cl)c1cc(Cl)ccc1O` [Niclosamide]: the 50% inhibitory concentration (IC50) in [1] was 10.6 ± 2.84 µM; in experiment [2] it was 15.2 ± 3.51 µM; in experiment [3] it was 0.42 ± 0.07 µM; in experiment [4] it was 0.7 ± 0.14 µM; in [5], 10.5 ± 2.66 µM; in experiment [6] (RD-ES) it was 8.54 ± 1.55 µM. In addition, the IC50 is 12.5 ± 2.36 µM in [7] (Homo sapiens, SK-ES1); 7.02 ± 1.23 µM in [8] (Homo sapiens, A673); 0.79 ± 0.47 µM in [9] (TC-71).

As to `COc1cc(NC(C)CCCN)c2ncccc2c1` (stereo not drawn) [Primaquine], the half-inhibitory concentration (IC50) in experiment [1] is greater than 50 µM; in experiment [2], greater than 25 µM; in experiment [3] it was 13.3 ± 4.09 µM; in experiment [4], 7.14 ± 2.21 µM; in experiment [5], greater than 25 µM; in experiment [6] (RD-ES), greater than 25 µM. Also, the IC50 in experiment [7] (Homo sapiens, SK-ES1) is greater than 25 µM; in experiment [8] (Homo sapiens, A673) it was 32.5 ± 6.58 µM; in [9] (TC-71) it was 14.3 ± 3.71 µM.
